# Measurements from article PMC8170916, “Sublingual AKBA Exerts Antidepressant Effects in the Aβ-Treated Mouse Model” (Biomolecules, 2021).
# What was measured:
# 5-LOX = tested on: 5-LOX; parameters: method as in PMID 9760176; settings: cited from earlier work
# [1] = Cerebral AKBA quantification by GC-MS/IT after sublingual or intranasal administration; format: in vivo, mice; settings: 5 mg/kg
# Experimental: AKBA (Cayman Chemical Company) was dissolved in sunflower oil, this vehicle was chosen in order to maintain a better tasting and higher density of the final solution thus reducing reflux through the digestive tract. […] Ten µL of the solution (or vehicle alone) was sublingually administered to mice. For intranasal administration, requiring more hydrophilic solution, AKBA was dissolved in DMSO and saline (1:3, v/v), and given to mice at the same final dose of 5 mg/kg. Cerebral AKBA was quantified in a separate subset of mice at 5, 15 and 30 min after its administration, either sublingually or intranasally.
# After administration, whole brains were put in 1 mL of a solution of chloroform/methanol (1:1 v/v), sonicated and then homogenates were centrifuged at 4 °C for 20 min (10,000 rpm). The pellets were then removed, and the remaining supernatants were dried on sodium sulphate anhydrous, filtered with 0.20 µm PTFE syringe filters and used for chemical analysis. The quantification of 3-O-acetyl-11-keto-β-boswellic acid (AKBA) was performed by using GC-MS/IT equipment composed of a gas chromatograph GC-7890B (Agilent Technologies, Santa Clara, CA, USA) coupled with an ion trap mass spectrometer IT-240 (Agilent Technologies).
# The gas chromatograph was equipped with a VF-5 ms (Agilent J&W GC Columns) capillary column, 30 m × 0.25 mm i.d. × 0.25 µm. The column oven was set at 50 °C for 1 min after injection; then the temperature was increased from 50 °C to 300 °C with a ramp of 5 °C/min and a hold time of 10 min. The purge process was performed at the end of each run, increasing the oven temperature from 300 °C to 325 °C at 10 °C/min and a hold time of 1.5 min. The total time for each run was approximately 65 min. The injection volume was 2 µL (splitless) with a continuous flow rate of 1 mL/min of ultra-high purity helium (BIP®) and an injector temperature of 250 °C.
# The MS electron multiplier voltage was set at 1450 V, and an ionization time of 65,000 µs was used, running in the electron impact (EI) mode. The transfer line, ion trap and manifold temperatures were set at 270 °C, 180 °C and 70 °C, respectively. The mass spectrometer firstly operated in full scan mode (50–700 m/z) with the ionizing voltage at 70 eV. […] Peaks at m/z 408 and m/z 393 were identified as M-AcOH-CO2 and M-AcOH-CO2-CH3. The peak at m/z 273 was identified as fragment A, resulting from retro-Diels–Alder fragmentation, while the peak at m/z 232 was identified as fragment B, generated from McLafferty fragmentation. These characteristic fragments were selected as a mass target to develop the MS acquisition method operating in single ion scan mode (SIS) to improve the LOD and LOQ for AKBA quantification. […]
# kynurenine (KYN) = test: Kynurenine quantification in PFC and HIPP by HPLC with electrochemical detection; format: in vivo; settings: mice 7 days after icv Aβ 4 µM, sublingual AKBA 5 mg/kg 30 min earlier
# Experimental: All behavioral experiments were conducted at 5 or 30 min after sublingual administrations of AKBA or vehicle in either SHAM or Aβ-treated mice. Based upon behavioral outcomes observed, neurochemical and biochemical quantifications were performed 30 min after AKBA or vehicle administration in either SHAM or Aβ-treated mice.
# Anesthetized animals were sacrificed by cervical dislocation. Brains were immediately removed and kept on ice for dissection of PFC and HIPP, according to the atlas of Paxinos and Franklin. Tissues were frozen and stored at −80 °C until analyses were carried out. Samples (PFC and HIPP) were homogenized (1:10 w/v) at 4 °C using a PBS buffer containing a 1:100 protease and phosphatase inhibitor cocktail (HALT inhibitors, Thermo Fisher Scientific, Cleveland, OH, USA) for biochemical analyses or perchloric acid 0.1 M for neurochemical analyses. Homogenates were centrifuged at 13,000× g at 4 °C for 20 min, and supernatants were used for further determinations.
# 5-HT, noradrenaline (NA), and KYN levels were measured in the PFC and HIPP of mice by HPLC coupled with an electrochemical detector (Ultimate ECD, Thermo Scientific Dionex, Milan, Italy) as already reported. Separation was performed by a LC18 reverse phase column (Kinetex, 150 mm × 3.0 mm, ODS 5 μm; Phenomenex, Castel Maggiore-Bologna, Italy). The detection was accomplished by a thin layer amperometric cell (Thermo Scientific Dionex, Milan, Italy) with a 5 mm diameter glassy carbon electrode at a working potential of 400 mV (5-HT and NA) or 0.750 mV (KYN) vs. Pd. The mobile phase consisted of an aqueous buffer containing 75 mM NaH2PO4, 1.7 mM octane sulfonic acid, 0.3 mM EDTA, and acetonitrile 10%, buffered at pH 3.0. The flow rate was kept at 0.7 mL·min-1 by an isocratic pump (Shimadzu LC-10 AD, Kyoto, Japan). Data acquisition and integration were performed by using Chromeleon software (version 6.80, Thermo Scientific Dionex, Milan, Italy). GLU concentrations were determined by HPLC coupled with fluorescence detection (emission length 460 nm; excitation length 340 nm), as previously published. Analyses were carried out using an LC18 reverse phase column (Kinetex, 150 mm × 3.0 mm, ODS 5 μm; Phenomenex, Castel Maggiore, Bologna, Italy) and detection was accomplished by pre-column derivatization with ophthalaldehyde/mercaptopropionic acid. The mobile phase consisted of a 50 mM sodium acetate buffer, at pH 6.95, with gradient methanol increasing linearly from 2 to 30% (v/v) over a 40 min run. […] Results were analyzed by Borwin software (version 1.50; Jasco, Cremella, Italy) and the amino acid concentration was expressed as µM. All data were normalized for total area weight and were expressed as concentration/mg of tissue.
compound,measurement,setting,value
"CC(=O)O[C@@H]1CC[C@@]2(C)[C@@H](CC[C@]3(C)[C@@H]2C(=O)C=C2[C@@H]4[C@@H](C)[C@H](C)CC[C@]4(C)CC[C@]23C)[C@@]1(C)C(=O)O [AKBA, 3-O-acetyl-11-keto-β-boswellic acid]",5-LOX inhibition,5-LOX,5-LOX inhibitor
same,"Cerebral AUCs, sublingual vs intranasal",[1]; same dose by both routes,sublingual route of administration was characterized by higher bioavailability
same,Crossing of the blood brain barrier,[1]; sublingual or intranasal,rapidly crossed the blood brain barrier
same,Time of highest cerebral AKBA concentrations after administration,"[1]; sublingual or intranasal, sampled at 5, 15, 30 min",5 min
same,Cerebral AKBA levels (whole brain),"[1]; sublingual vs intranasal, 5, 15 and 30 min after administration",significantly higher after sublingual administration compared to intranasal
same,KYN levels in the HIPP,kynurenine (KYN); HIPP,prevented the increase in KYN levels
same,KYN levels in the PFC,kynurenine (KYN); PFC,prevented such an increase
